Among the data in patent US12077503B2, “Substituted cyclic amides and their use as herbicides” (FMC CORPORATION, priority 2015, dated 2024) are pest or weed control, Corn plant response rating (crop injury, 0 = no effect, 100 = complete kill) and plant injury values, retold here.

Common to all, as to assay type: in vivo
Test [1] has as its system pigweed (Amaranthus retroflexus). The test is described as follows: Test A postemergence. The conditions noted are these: Amaranthus retroflexus, post-emergence, 240 h, postemergence; for pest or weed control at 125 g/ha: 125 g ai/ha. In short, it runs like this: (§1)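 Treatment is preemergence as a directed soil spray after planting, or postemergence at the one- to two-leaf stage, with test chemical in a non-phytotoxic solvent mixture plus surfactant. Plants stay in the greenhouse about 10 d before visual injury scoring on a 0 to 100 scale versus untreated controls.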

The subject of test [2] is blackgrass (Alopecurus myosuroides). Nature of the test: Test A postemergence. The conditions noted are these: Alopecurus myosuroides, post-emergence, 240 h, read-out: Plant response rating, Blackgrass. Summed up: as §1
For test [3], the system named is Galium (catchweed bedstraw, Galium aparine). Nature of the test: Test A postemergence. The following applies: Galium, post-emergence, 240 h, postemergence; for pest or weed control at 125 g/ha: 125 g ai/ha. Summed up: as §1
The next test concerns corn (Zea mays). The test is described as follows: Test A postemergence. The following applies: Zea mays, post-emergence, 240 h. Summed up:
as §1

The test system of test [4] is barnyardgrass (Echinochloa crus-galli). Nature of the test: Test A postemergence. The conditions noted are these: Echinochloa crus-galli, post-emergence, 240 h; for pest or weed control at 125 g/ha: 125 g ai/ha. In short, it runs like this: as §1
In test [5] the test system is wheat (Triticum aestivum). Nature of the test: Test A postemergence. The following applies: Triticum aestivum, post-emergence, 240 h, postemergence; for plant injury at 125 g/ha: 125 g ai/ha. In short, it runs like this:
as §1

Test [6] deals with giant foxtail (Setaria faberii). Nature of the test: Test A postemergence. The following applies: Setaria faberi, post-emergence, 240 h, postemergence; for pest or weed control at 125 g/ha: 125 g ai/ha. In short, it runs like this:
as §1

Test [7] relates to ryegrass, Italian (Italian ryegrass, Lolium multiflorum). The test is described as follows: Test A postemergence. The conditions noted are these: Lolium multiflorum, post-emergence, 240 h, postemergence; for pest or weed control at 125 g/ha: 125 g ai/ha. Summed up: as §1
A further test has as its system Kochia (Kochia scoparia). The test is described as follows: Test A postemergence. The conditions noted are these: Bassia scoparia, post-emergence, 240 h, postemergence; for pest or weed control at 125 g/ha: 125 g ai/ha. In short, it runs like this:
as §1

Test [8] has as its system ragweed (common ragweed, Ambrosia elatior). The test is described as follows: Test A postemergence. The following applies: Ambrosia artemisiifolia, post-emergence, 240 h, postemergence; for pest or weed control at 125 g/ha: 125 g ai/ha. Summed up:
as §1

For test [9], the system named is giant foxtail (Setaria faberii). Nature of the test: Test A preemergence. The following applies: Setaria faberi, pre-emergence, 240 h; for pest or weed control at 125 g/ha: 125 g ai/ha; for pest or weed control at 500 g/ha: 500 g ai/ha. In short, it runs like this:
as §1

Test [10] concerns sedge, umbrella (small-flower umbrella sedge, Cyperus difformis). The test is described as follows: Test B flooded paddy test. The following applies: Cyperus difformis, Flood, 250 g ai/ha; scale of 0 to 100 where 0 is no effect and 100 is complete control; read-out: Sedge, Umbrella plant response rating. Summed up:
(§2)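 Response scored visually against untreated controls, 0 = no effect and 100 = complete control, 13–15 d after treatment in the greenhouse. Compounds added to paddy water held 3 cm above soil surface. Treatment given at 2-leaf stage.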

The subject of the next test is rice (Oryra sativa). Nature of the test: Test B flooded paddy test. The conditions noted are these: Oryza sativa, Flood, 250 g ai/ha; scale of 0 to 100 where 0 is no effect and 100 is complete control; read-out: Rice plant response rating. Summed up: as §2
For test [11], the system named is barnyardgrass (Echinochloa crus-galli). Nature of the test: Test B flooded paddy test. The conditions noted are these: Echinochloa crus-galli, Flood, 250 g ai/ha; scale of 0 to 100 where 0 is no effect and 100 is complete control; read-out: Barnyardgrass plant response rating. Summed up:
as §2

In test [12] the test system is ducksalad (Heteranthera limosa). The test is described as follows: Test B flooded paddy test. The conditions noted are these: Heteranthera limosa, Flood, 250 g ai/ha; scale of 0 to 100 where 0 is no effect and 100 is complete control; read-out: Ducksalad plant response rating. In short, it runs like this:
as §2

The mark [13] stands for this setting: 125 g ai/ha, Postemergence, visual injury after approximately 10 d, 0 to 100 scale where 0 is no effect and 100 is complete control.
Where [14] appears, read: 500 g ai/ha, postemergence, visual injury, 0 to 100 scale (0 no effect, 100 complete control), approx. 10 d.

SMILES strings stand for the structures. Like-named read-outs stand apart in the source and are kept apart here.

`CSc1ccccc1NC(=O)[C@H]1C(=O)NC[C@@H]1c1ccc(C)c(C)c1` [Compound 1036]: the pest or weed control at 125 g/ha in [1] (visual injury on 0 to 100 scale (0 no effect, 100 complete control), approx. 10 d, read-out: Pigweed plant response rating) was found to be 0%; in test [2] (setting [13]) it was 0%; in [3] (visual injury on 0 to 100 scale (0 no effect, 100 complete control), approx. 10 d, read-out: Galium plant response rating), 20%; in test [4] (Postemergence, visual injury after approximately 10 d, 0 to 100 scale where 0 is no effect and 100 is complete control, read-out: Plant response rating, Barnyardgrass), 70%; in test [6] (visual injury on 0 to 100 scale (0 no effect, 100 complete control), approx. 10 d, read-out: Foxtail, Giant plant response rating), 0%; in test [7] (visual injury on 0 to 100 scale (0 no effect, 100 complete control), approx. 10 d, read-out: Ryegrass, Italian plant response rating) it was 0%. The pest or weed control at 125 g/ha came to 0% in the test with Kochia (Kochia scoparia) (visual injury on 0 to 100 scale (0 no effect, 100 complete control), approx. 10 d, read-out: Kochia plant response rating); 0% in test [8] (visual injury on 0 to 100 scale (0 no effect, 100 complete control), approx. 10 d, read-out: Ragweed plant response rating); 70% in test [9] (Preemergence, visual injury rating after approximately 10 d, read-out: Foxtail, Giant plant response rating (0 to 100 scale, 0 is no effect, 100 is complete control)). Also, the pest or weed control at 500 g/ha in [1] (500 g ai/ha, visual injury, 0 to 100 scale (0 no effect, 100 complete control), approx. 10 d, read-out: Plant response rating, Pigweed) came out at 0%; in test [2] (setting [14]), 0%; in test [3] (500 g ai/ha, visual injury, 0 to 100 scale (0 no effect, 100 complete control), approx. 10 d, read-out: Plant response rating, Galium) it was 30%; in [4] (500 g ai/ha, postemergence, visual injury, 0 to 100 scale (0 no effect, 100 complete control), approx. 10 d, read-out: Plant response rating, Barnyardgrass), 90%; in test [6] (500 g ai/ha, visual injury, 0 to 100 scale (0 no effect, 100 complete control), approx. 10 d, read-out: Plant response rating, Foxtail, Giant), 60%; in [7] (500 g ai/ha, visual injury, 0 to 100 scale (0 no effect, 100 complete control), approx. 10 d, read-out: Plant response rating, Ryegrass, Italian), 60%. The pest or weed control at 500 g/ha in the test with Kochia (Kochia scoparia) (500 g ai/ha, visual injury, 0 to 100 scale (0 no effect, 100 complete control), approx. 10 d, read-out: Plant response rating, Kochia) was 0%; in [8] (500 g ai/ha, visual injury, 0 to 100 scale (0 no effect, 100 complete control), approx. 10 d, read-out: Plant response rating, Ragweed) it was 10%; in [9] (preemergence, visual injury rating about 10 d after treatment, 0 to 100 scale (0 no effect, 100 complete control), read-out: Foxtail, Giant plant response rating) it was 90%. In the test with corn (Zea mays) (setting [13]), this compound registered a Corn plant response rating (crop injury, 0 = no effect, 100 = complete kill) at 125 g/ha of 0%. Moreover, the Corn plant response rating (crop injury, 0 = no effect, 100 = complete kill) at 500 g/ha with corn (Zea mays) (setting [14]) turned out to be 20%. In addition, the plant injury at 125 g/ha in test [5] (visual injury on 0 to 100 scale (0 no effect, 100 complete control), approx. 10 d, read-out: Wheat plant response rating) turned out to be 0%. The plant injury at 500 g/ha in [5] (500 g ai/ha, visual injury, 0 to 100 scale (0 no effect, 100 complete control), approx. 10 d, read-out: Plant response rating, Wheat) was 20%.

On to `CS(=O)(=O)c1ccccc1NC(=O)[C@H]1C(=O)NC[C@@H]1c1cc(F)c(C(F)(F)F)c(F)c1` [Compound 839], for which the pest or weed control at 125 g/ha in test [1] (visual injury rating after approximately 10 d, read-out: Pigweed plant response rating (0 to 100 scale, 0 no effect, 100 complete control)) amounted to 80%; in test [3] (visual injury rating after approximately 10 d, read-out: Galium plant response rating (0 to 100 scale, 0 no effect, 100 complete control)), 80%; in [4] (postemergence, visual injury rating after approximately 10 d, read-out: Barnyardgrass plant response rating (0 to 100 scale, 0 no effect, 100 complete control)), 60%; in test [6] (visual injury rating after approximately 10 d, read-out: Foxtail, Giant plant response rating (0 to 100 scale, 0 no effect, 100 complete control)), 60%; in [7] (visual injury rating after approximately 10 d, read-out: Ryegrass, Italian plant response rating (0 to 100 scale, 0 no effect, 100 complete control)) it was 50%; in the test with Kochia (Kochia scoparia) (visual injury rating after approximately 10 d, read-out: Kochia plant response rating (0 to 100 scale, 0 no effect, 100 complete control)), 70%. The pest or weed control at 125 g/ha in test [8] (visual injury rating after approximately 10 d, read-out: Ragweed plant response rating (0 to 100 scale, 0 no effect, 100 complete control)) is 60%; in test [9] (preemergence, 0 to 100 scale where 0 is no effect and 100 is complete control, read-out: Foxtail, Giant plant response rating), 90%. Moreover, the plant injury at 125 g/ha in the test with corn (Zea mays) (125 g ai/ha, postemergence, visual injury rating after approximately 10 d, read-out: Corn plant response rating (0 to 100 scale, 0 no effect, 100 complete control)) was determined as 30%; in [5] (visual injury rating after approximately 10 d, read-out: Wheat plant response rating (0 to 100 scale, 0 no effect, 100 complete control)) it was 50%. For the same compound, the pest or weed control at 250 g/ha was determined as 0% in [10], 0% in the test with rice (Oryra sativa), 0% in [11] and 70% in test [12]. In test [9] (Preemergence, visual injury vs untreated controls after approximately 10 d, read-out: Foxtail, Giant plant response rating (0 to 100 scale where 0 is no effect and 100 is complete control)), the pest or weed control at 500 g/ha was 90%.
